System: Plasmodium falciparum
Test: GSK_TCMDC: Inhibition of Plasmodium falciparum 3D7 in whole erythrocytes, using parasite LDH activity as an index of growth.
Assay type: functional, organism-based

O=C(O[C@H]1CN[C@H](C#Cc2cc3c(Nc4ccc(OCc5cccc(F)c5)c(Cl)c4)ncnc3s2)C1)N1CCCC1
XC50 (Plasmodium falciparum, 3D7): 707 nM

c1ccc2c3c(ccc2c1)Sc1c(ccc2ccccc12)N3
XC50 (Plasmodium falciparum, 3D7): 1070 nM

Cc1[nH]c2ccc(O)cc2c1C1CCN(CCCCCNC(=O)/C=C/c2ccc(Cl)c(Cl)c2)CC1
XC50 (Plasmodium falciparum, 3D7): 771 nM

CSc1nnc2n(Cc3ccccc3)c(=O)c3c(n12)-c1ccccc1CC31CCCCC1
XC50 (Plasmodium falciparum, 3D7): 969 nM

CN1CCC(NCCS(=O)(=O)c2cccc(Nc3ccc(-c4cccc(F)c4)cn3)c2)CC1
XC50 (Plasmodium falciparum, 3D7): 1360 nM

COc1coc(C(=O)NC2CCN(CC3(c4ccc(Cl)cc4)CCC3)CC2)c1OC
XC50 (Plasmodium falciparum, 3D7): 164 nM

CC(CCc1ccccc1)NCC(O)c1cccc([N+](=O)[O-])c1 (configuration not stated)
XC50 (Plasmodium falciparum, 3D7): 858 nM

Cc1noc(C)c1-c1ccc2c(Nc3nccc4ccccc34)c(C(N)=O)cnc2c1
XC50 (Plasmodium falciparum, 3D7): 895 nM

COc1cc(C(F)(F)F)c2cc(CNCCCNc3nc4ccccc4[nH]3)[nH]c2c1
XC50 (Plasmodium falciparum, 3D7): 305 nM

Cc1cccc2nc(-c3cccc(-c4cccc(NC(=O)NC5CC5c5ccccc5)c4)c3)[nH]c12 (configuration not stated)
XC50 (Plasmodium falciparum, 3D7): 705 nM

O=C(NCc1ccc(Cl)c(Cl)c1)c1ccc(C2CCN(Cc3ccc4[nH]cnc4c3)CC2)cc1
XC50 (Plasmodium falciparum, 3D7): 957 nM

CCCCOc1cc2ncc(C(=O)OCC)c(O)c2cc1OCCCC
XC50 (Plasmodium falciparum, 3D7): 201 nM

Cc1cccc(N2CCN(C3CCC(NC(=O)c4cc5ccccc5[nH]4)CC3)CC2)c1C (configuration not stated)
XC50 (Plasmodium falciparum, 3D7): 609 nM

COc1nc2c(CCN3CCC(NCc4ccc5c(n4)NC(=O)CO5)CC3)c(Cl)cnc2cc1F
XC50 (Plasmodium falciparum, 3D7): 418 nM

O=C(Nc1ccc(Cl)c(C(F)(F)F)c1)c1ccc(Cl)c([N+](=O)[O-])c1
XC50 (Plasmodium falciparum, 3D7): 1120 nM

COc1cc2c(cc1S(=O)(=O)c1ccc(NC(=O)c3ccc4ccccc4c3)cc1)CCN(C)CC2
XC50 (Plasmodium falciparum, 3D7): 797 nM

CCCCCCCN1CCC(CCNc2ccnc3ccc(OC)cc23)CC1
XC50 (Plasmodium falciparum, 3D7): 955 nM

Cc1[nH]c(-c2ccc(F)cc2)cc1C(=O)NC1CCN(Cc2ccccc2)CC1
XC50 (Plasmodium falciparum, 3D7): 1130 nM

CCc1cc2c3c(N)nc(N)nc3ccc2n1C(C)(C)C
XC50 (Plasmodium falciparum, 3D7): 12.7 nM

O=S(=O)(c1c(Cl)cccc1Cl)N1CCCCC(c2ccc(C(F)(F)F)cc2)=N1
XC50 (Plasmodium falciparum, 3D7): 126 nM

N#Cc1ccc2c(c1)CCN(CCC1CCC(NC(=O)Nc3ccncc3)CC1)C2 (configuration not stated)
XC50 (Plasmodium falciparum, 3D7): 1130 nM

O=C(Nc1cccc(CN2CCCN(Cc3cccnc3)CC2)c1)c1cc2ccccc2s1
XC50 (Plasmodium falciparum, 3D7): 1470 nM

COc1cc(F)c2ncc(Cl)c(C(O)CN3CCC(NC(=O)c4ccc5c(n4)NC(=O)CO5)CC3)c2c1 (configuration not stated)
XC50 (Plasmodium falciparum, 3D7): 754 nM

CC(C)(C)CN1C(=O)C(c2ccccc2)(c2ccccc2)N=C1N
XC50 (Plasmodium falciparum, 3D7): 515 nM

N#Cc1ccc2c(c1)CCN(CCC1CCC(NC(=O)/C=C/c3ccc4[nH]ccc4c3)CC1)CC2 (configuration not stated)
XC50 (Plasmodium falciparum, 3D7): 1060 nM

CC(C)CNCc1cccc(-c2ccc(CN(C(=O)Nc3ccccc3)C3CCN(Cc4ccccc4)CC3)cc2)c1
XC50 (Plasmodium falciparum, 3D7): 476 nM

Clc1ccc(Nc2nc(Nc3ccc(Cl)c(Cl)c3)nc(Sc3nc4ccccc4[nH]3)n2)cc1Cl
XC50 (Plasmodium falciparum, 3D7): 490 nM

Clc1cnc2ccc3c(c2c1CCN1CCC(NCc2cc4c(cn2)OCCO4)CC1)OCCO3
XC50 (Plasmodium falciparum, 3D7): 718 nM

FC(F)(F)c1ccc2[nH]c(-c3ccc(-c4ccc(CN5CCN(c6ccncc6)CC5)cc4)s3)nc2c1
XC50 (Plasmodium falciparum, 3D7): 153 nM

COc1ccc(Nc2ncc3c(-c4cccc(NC(=O)CC(C)C)c4)c[nH]c3n2)cc1OC
XC50 (Plasmodium falciparum, 3D7): 826 nM

COc1ccc(C(=O)O)cc1OCc1ccccc1
XC50 (Plasmodium falciparum, 3D7): 819 nM

Cc1cc(I)ccc1Nc1nc2nonc2nc1Nc1ccc(I)cc1C
XC50 (Plasmodium falciparum, 3D7): 510 nM

COc1ccc(CCN(C)CCOc2ccc(NC(=O)c3cccc4c(=O)c5cc(SC)ccc5[nH]c34)cc2)cc1OC
XC50 (Plasmodium falciparum, 3D7): 740 nM

Cc1[nH]cc(Br)c(=O)c1-c1ccc(Oc2ccc(OC(F)(F)F)cc2)cc1
XC50 (Plasmodium falciparum, 3D7): 325 nM

O=C(N[C@@H](Cc1ccccc1)[C@H](O)CNCCC(F)(F)F)c1cccc(OCC2CC2)c1
XC50 (Plasmodium falciparum, 3D7): 616 nM

C=CCOc1ccc(C(=O)Nc2nonc2-c2ccc(OC)c(OC)c2)cc1
XC50 (Plasmodium falciparum, 3D7): 642 nM

Cc1ccc(N2C(N)=NC(N)=NC2(C)C)cc1
XC50 (Plasmodium falciparum, 3D7): 36.6 nM

CCS(=O)(=O)Nc1ccc2c(c1)/C(=C(/Nc1ccc(CN3CCCCC3)cc1)c1ccccc1)C(=O)N2 [HESPERADIN]
XC50 (Plasmodium falciparum, 3D7): 56.5 nM

c1ccc(Oc2ccc(Nc3ccnc(Nc4ccc5cn[nH]c5c4)n3)cc2)cc1
XC50 (Plasmodium falciparum, 3D7): 733 nM

Cc1cc(C=C2SC(=Nc3ccccc3)N(C3CCCC3)C2=O)c(C)n1-c1ccc(Cl)cc1
XC50 (Plasmodium falciparum, 3D7): 876 nM

CC(C)CNCc1ccc(-c2cccc(CN(CCCN3CCN(C)CC3)C(=O)/C=C/c3ccccc3)c2)cc1
XC50 (Plasmodium falciparum, 3D7): 872 nM

CC(C)N1CCN(c2ccc(OCCCCN3CCN(c4cccc(Cl)c4Cl)CC3)cc2Cl)CC1
XC50 (Plasmodium falciparum, 3D7): 1040 nM

COC(=O)c1cccc(C#CCCOCCCCCCNC[C@H](O)c2cc(Cl)c(N)c(Cl)c2)c1
XC50 (Plasmodium falciparum, 3D7): 771 nM

O=c1cc(NCCCNCc2ccc(C(F)(F)F)s2)[nH]c2ccccc12
XC50 (Plasmodium falciparum, 3D7): 200 nM

CCC(C)CN1CCN(c2cc(NC(=O)c3cccs3)ccn2)C(C)C1 (configuration not stated)
XC50 (Plasmodium falciparum, 3D7): 997 nM

O=C(NC1CCN(Cc2ccccc2)CC1)c1cc(-c2cccnc2)nc2ccc(Cl)cc12
XC50 (Plasmodium falciparum, 3D7): 759 nM

O=C(Nc1cccc(-c2ccc(-c3nc4ccccc4[nH]3)cc2)c1)Nc1ccc(F)c(F)c1F
XC50 (Plasmodium falciparum, 3D7): 238 nM

CC(C)(C)c1cc([N+](=O)[O-])cc(C(=O)Nc2ccccc2C(F)(F)F)c1O
XC50 (Plasmodium falciparum, 3D7): 652 nM

CCN(CC)CCOc1ccc(C(O)(C#CC(O)(c2ccc(C)cc2)c2ccc(OCCN(CC)CC)cc2)c2ccc(C)cc2)cc1 (configuration not stated)
XC50 (Plasmodium falciparum, 3D7): 903 nM

Nc1nccc(-c2ccc3c(-c4cccc(F)c4)cnc(N)c3c2)n1
XC50 (Plasmodium falciparum, 3D7): 1020 nM

O=[N+]([O-])c1ccccc1C=NN=c1c2c([nH]c3ccccc13)CCCC2
XC50 (Plasmodium falciparum, 3D7): 311 nM

COc1ccc(C(=O)Nc2ccc(-c3ccc([N+](=O)[O-])cc3)cc2)cc1CCCN(C)C
XC50 (Plasmodium falciparum, 3D7): 803 nM

CN(C)c1ccc2c(c1)Sc1cc(N(C)C)ccc1N2C(=O)c1cccc(C(=O)O)c1
XC50 (Plasmodium falciparum, 3D7): 184 nM

O=C(Nc1cccc(-c2ccc(-c3nc4cc(F)ccc4[nH]3)cc2)c1)c1csnn1
XC50 (Plasmodium falciparum, 3D7): 278 nM

COc1ccc(-c2cccc(NC(=O)c3cccc(Cl)c3)c2)cc1CNC(C)C
XC50 (Plasmodium falciparum, 3D7): 721 nM

COc1cc2nc(N3CCC(CNC(=O)c4ccc(-c5ccc(C#N)cc5)cc4)CC3)nc(N)c2cc1OC
XC50 (Plasmodium falciparum, 3D7): 796 nM

Oc1ccc(C=NNC(S)=Nc2cccc3ccccc23)c(O)c1
XC50 (Plasmodium falciparum, 3D7): 1040 nM

COc1cc(/C=C/C(=O)NC2CCC(CN3CCC(c4c[nH]c5ccccc45)CC3)CC2)ccc1O (configuration not stated)
XC50: 791 nM
XC50 (Plasmodium falciparum, 3D7): 809 nM

CC(=O)Nc1ccc(C(=O)Nc2ccc(-c3csc(-c4nc5ccccc5[nH]4)c3)cc2)cn1
XC50 (Plasmodium falciparum, 3D7): 591 nM

COc1ccc2c(c1)[nH]c1c(C=Cc3ccccc3)nccc12
XC50 (Plasmodium falciparum, 3D7): 379 nM

O=C(Nc1ccc(Cl)c(C(F)(F)F)c1)N[C@H]1CCN(CCCCCNC(=O)C2CC2c2ccc(Cl)c(Cl)c2)C1 (some centres not stated)
XC50 (Plasmodium falciparum, 3D7): 1080 nM

O=C(NCC1CN(Cc2ccc(N3CCCC3)o2)CCCO1)c1ccc2c(c1)OCO2 (configuration not stated)
XC50 (Plasmodium falciparum, 3D7): 839 nM

CN1CCC(COC(=O)C(O)(c2ccccc2)c2ccccc2)C1 (configuration not stated) [TRICLAZATE]
XC50 (Plasmodium falciparum, 3D7): 997 nM

CN(C)CCNCc1ccc(-c2ccc3c(Nc4ccc(Cl)cc4F)ccnc3c2)o1
XC50 (Plasmodium falciparum, 3D7): 208 nM

C=CCOC(=O)N1CCC(CNCc2ccc(-c3cccc(-c4nc5ccccc5[nH]4)c3)cc2)C1 (configuration not stated)
XC50 (Plasmodium falciparum, 3D7): 255 nM

COc1ccc(NC(=O)N2CCCN(CCCCCNC(=O)/C=C/c3ccc(C(F)(F)F)cc3)CC2)cc1Cl
XC50 (Plasmodium falciparum, 3D7): 980 nM

CCN(CC)CCCNc1ncc2c(-c3ccc(NC(=O)Nc4cc(C(F)(F)F)ccc4F)c(F)c3)nn(C)c2n1
XC50 (Plasmodium falciparum, 3D7): 272 nM

COc1ccc2nc(C)cc(N/N=C/c3cccc([N+](=O)[O-])c3)c2c1
XC50 (Plasmodium falciparum, 3D7): 725 nM

CC(C)NCc1cccc(-c2cccc(-c3nc4ccccc4[nH]3)c2)c1
XC50 (Plasmodium falciparum, 3D7): 799 nM

Cc1cc(NC(=O)NCCN2CCC(NS(=O)(=O)c3ccc(C(F)(F)F)cc3)C2)c2ccccc2n1 (configuration not stated)
XC50 (Plasmodium falciparum, 3D7): 645 nM

Cc1cc(N2CCN(CC3CCN(C)CC3)CC2)nc(Nc2ccc(Br)cc2)n1
XC50 (Plasmodium falciparum, 3D7): 442 nM

Cc1cccc(CC2CC(=O)N(c3ccc([N+](=O)[O-])cc3)C2=O)c1 (configuration not stated)
XC50 (Plasmodium falciparum, 3D7): 200 nM

CS(=O)(=O)NCCCNCc1ccc(-c2ccc(-c3nc4cc(C(F)(F)F)ccc4[nH]3)s2)cc1
XC50 (Plasmodium falciparum, 3D7): 515 nM

O=C(Nc1ccc2ccccc2c1)N(CCCn1ccnc1)Cc1csc(-c2ccc(CNCc3ccccc3)cc2)n1
XC50 (Plasmodium falciparum, 3D7): 739 nM

CSC1=NC(=Nc2c(C)cccc2C)C2(CCC(C(C)(C)C)CC2)N1c1ccc(O)cc1 (configuration not stated)
XC50 (Plasmodium falciparum, 3D7): 250 nM

Fc1ccc(Nc2ccnc3cc(-c4ccc(CN5CCOCC5)o4)ccc23)c(Cl)c1
XC50 (Plasmodium falciparum, 3D7): 756 nM

CNCc1ccc(CN(C)c2nc(N)c3cc(OC)c(OC)cc3n2)cc1
XC50 (Plasmodium falciparum, 3D7): 1030 nM

c1cc(CNC2CCCC2)cc(-c2ccc(CNc3ccc4ncccc4c3)cc2)c1
XC50 (Plasmodium falciparum, 3D7): 773 nM

Cc1ccc(-c2nc3cc(C(=O)NC4CCC(N5CCCc6ccc(C#N)cc6C5)CC4)ccc3[nH]2)cc1 (configuration not stated)
XC50 (Plasmodium falciparum, 3D7): 1360 nM

O=C(/C=C/c1ccc(Cl)c(Cl)c1)NCCCCCN1CCCN(C(=O)Nc2ccc(F)c(Cl)c2)CC1
XC50 (Plasmodium falciparum, 3D7): 799 nM

CN(C)CCNCc1ccc(-c2ccc3c(Nc4ccc(F)cc4Cl)ccnc3c2)o1
XC50 (Plasmodium falciparum, 3D7): 145 nM

O=c1cc(NCCCNCc2cc3ccccc3s2)[nH]c2ccccc12
XC50 (Plasmodium falciparum, 3D7): 1270 nM

Oc1cc2c(cc1CN1CCN(Cc3ccccc3F)CC1)CCC2
XC50 (Plasmodium falciparum, 3D7): 761 nM

O=C(Nc1cccc(CN2CCCN(Cc3ccsc3)CC2)c1)c1ccc(-c2ccccc2)cc1
XC50 (Plasmodium falciparum, 3D7): 1340 nM

CCC(C)CC(=O)Nc1ccc(OC)c(S(=O)(=O)N[C@@H]2CCN(C#N)C2)c1 (some centres not stated)
XC50 (Plasmodium falciparum, 3D7): 1490 nM

CCCCN1CCN(c2cc(NS(=O)(=O)c3ccc(C(=O)Nc4ccc(C(F)(F)F)cc4)cc3)ccc2OC)CC1
XC50 (Plasmodium falciparum, 3D7): 664 nM

Reference: ChEMBL document CHEMBL1157539, “Thousands of chemical starting points for antimalarial lead identification” (Nature, 2010)
